The values that follow come from ChEMBL document CHEMBL3244242, “3-Benzazocine amidinium nitronates. An unusual type of opiate antagonist” (J Med Chem, 1978).

The test system of data set [1] is Mus musculus. The data set is described as follows: Analgesic activity in Swiss albino mouse at 5 to 20 mg/kg administered intramuscularly by mouse tail-flick test. It counts as functional, organism-based.
For data set [2], the system named is Mus musculus. As to the kind of experiment: Inhibition of morphine sulfate-induced analgesic activity in Swiss albino mouse at 20 mg/kg administered intramuscularly measured 30 mins post morphine sulfate challenge by mouse tail-flick test. It counts as functional, organism-based. Also on record: dose 20 mg/kg. (In hot-plate and tail-flick tests a longer latency is read as antinociception.)

Data set [3] can be described thus: Solubility of the compound in water. The conditions noted are these: buffer. It counts as physicochemical.
Data set [4] deals with Mus musculus. The data set is described as follows: Analgesic activity in Swiss albino mouse at 20 mg/kg, sc by mouse tail-flick test. It counts as functional, organism-based. Also on record: dose 20 mg/kg.
Data set [5] relates to Mus musculus. The data set is described as follows: Inhibition of morphine sulfate-induced analgesic activity in Swiss albino mouse at 20 mg/kg, sc measured 48 hrs post morphine sulfate challenge by mouse tail-flick test relative to naloxone hydrochloride. Also on record: dose 20 mg/kg. The class given is functional, organism-based.
Data set [6] relates to Mus musculus. The data set is described as follows: Inhibition of morphine sulfate-induced analgesic activity in Swiss albino mouse at 20 mg/kg, sc measured 24 hrs post morphine sulfate challenge by mouse tail-flick test. The conditions noted are these: route subcutaneous. It counts as functional.
For data set [7], the system named is Mus musculus. As to the kind of experiment: Inhibition of morphine sulfate-induced analgesic activity in Swiss albino mouse at 20 mg/kg administered intramuscularly measured 8 hrs post morphine sulfate challenge by mouse tail-flick test. The class given is functional. The conditions noted are these: route intramuscular.
For data set [8], the system named is Mus musculus. As to the kind of experiment: Inhibition of morphine sulfate-induced analgesic activity in sc dosed Swiss albino mouse measured 30 mins post morphine sulfate challenge by mouse tail-flick test. It counts as functional.

Activity calls are given as the source filed them. The rule behind the calls is not given here.

In the case of `CN(C)C(=[NH2+])Cc1ccccc1.CN(C)C1=NC2c3ccccc3C(=[N+]([O-])[O-])C(C1c1ccccc1)C2[N+](=O)[O-]` (centres undefined), the outcome in the data set with Mus musculus [1] and with Mus musculus [2] was inactive. Besides, the solubility entry in data set [3] was “Insoluble”.

Consider `CN(C)C(=[NH2+])Cc1ccccc1.CN(C)C1=NC2C(=[N+]([O-])[O-])c3c(cccc3[N+](=O)[O-])C(C1c1ccccc1)C2[N+](=O)[O-]` (centres undefined), for which, in the data set on Mus musculus [4], the result was inactive. The inhibition entry in the data set with Mus musculus [5] was “Active”. Moreover, in data set [3], the solubility result was “Insoluble”. The compound also came in with an Imax in the data set on Mus musculus [6] of 50%.

Consider `CN(C)C(=[NH2+])Cc1ccccc1.CN(C)C1=NC2C(=[N+]([O-])[O-])c3ccc([N+](=O)[O-])cc3C(C1c1ccccc1)C2[N+](=O)[O-]` (centres undefined), for which, in the data set with Mus musculus [1], the result was inactive. The compound further showed an Imax with Mus musculus [7] of 50%. The solubility entry in data set [3] is “Insoluble”.

In the data set with Mus musculus [8], `C[C@@H]1C2Cc3ccc([N+](=O)[O-])cc3[C@@]1(C)CCN2CC1CC1` displayed an AD50 of 9.6 mg/kg.

As to `CN(C)C(=[NH2+])Cc1ccccc1.CN(C)C1=NC2c3cc([N+](=O)[O-])ccc3C(=[N+]([O-])[O-])C(C1c1ccccc1)C2[N+](=O)[O-]` (centres undefined), the outcome in the data set on Mus musculus [1] and in the data set with Mus musculus [2] was inactive. In addition, the solubility result in data set [3] is “Insoluble”.
